This note sets out measurements from US20170217976A1, “6-(AMINO ACID)-MORPHINAN DERIVATIVES IN COMBINATION WITH PERMEATION […] FOR USE AS AN ORALLY, […], TRA[…] NASALLY AD[…]” (C[…], priority 2014, published 2017).

In one test the target is T1, KOR (Cavia porcellus, UniProt P41144).
T1 construct: from tissue
As to the kind of experiment: Opioid receptor binding, KOR, guinea pig brain membranes.

Another test addresses T2, MOR (Rattus norvegicus, UniProt P33535).
T2 construct: from tissue
As to the kind of experiment: Opioid receptor binding, MOR, rat brain membranes.

In the next test the target is T3, DOR (Rattus norvegicus, UniProt P33533).
T3 construct: from tissue
As to the kind of experiment: Opioid receptor binding, DOR, rat brain membranes.

Setting [1] is: Binding Ki (nM) KOR, in vitro binding assay, guinea pig brain membranes.
[2] abbreviates: Binding Ki KOR, Table 1-4, guinea pig brain membranes.
Where [3] appears, read: Binding Ki (nM) MOR, in vitro binding assay, rat brain membranes.
Setting [4] is: Binding Ki MOR, Table 1-4, rat brain membranes.
The mark [5] stands for this setting: Binding Ki (nM) DOR, in vitro binding assay, rat brain membranes.
Setting [6] is: Binding Ki DOR, Table 1-4, rat brain membranes.
Setting [7] is: Binding Ki KOR, Table 2-6, guinea pig brain membranes.
Where [8] appears, read: Binding Ki MOR, Table 2-6, rat brain membranes.
Where [9] appears, read: Binding Ki DOR, Table 2-6, rat brain membranes.
The mark [10] stands for this setting: Binding Ki KOR, Table 1-6, guinea pig brain membranes.
Setting [11] is: Binding Ki MOR, Table 1-6, rat brain membranes.
Setting [12] is: Binding Ki DOR, Table 1-6, rat brain membranes.
Setting [13] is: in vitro binding assay, guinea pig brain membranes, read-out: Binding Ki (nM) KOR.
[14] abbreviates: in vitro binding assay, rat brain membranes, read-out: Binding Ki (nM) MOR.
[15] abbreviates: in vitro binding assay, rat brain membranes, read-out: Binding Ki (nM) DOR.

Read-outs that look alike come from different tables or passages of the source.

T3 sequence (P33533 whole entry): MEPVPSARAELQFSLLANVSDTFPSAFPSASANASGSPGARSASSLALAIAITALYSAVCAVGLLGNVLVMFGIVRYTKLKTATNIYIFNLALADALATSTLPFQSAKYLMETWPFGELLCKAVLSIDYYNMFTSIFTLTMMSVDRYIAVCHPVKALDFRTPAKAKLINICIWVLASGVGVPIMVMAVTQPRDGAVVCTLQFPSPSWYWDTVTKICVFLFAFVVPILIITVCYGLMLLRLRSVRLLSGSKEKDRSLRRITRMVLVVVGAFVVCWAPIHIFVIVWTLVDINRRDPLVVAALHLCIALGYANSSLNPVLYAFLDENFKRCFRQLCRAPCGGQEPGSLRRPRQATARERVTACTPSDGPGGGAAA
T2 sequence (P33535 whole entry): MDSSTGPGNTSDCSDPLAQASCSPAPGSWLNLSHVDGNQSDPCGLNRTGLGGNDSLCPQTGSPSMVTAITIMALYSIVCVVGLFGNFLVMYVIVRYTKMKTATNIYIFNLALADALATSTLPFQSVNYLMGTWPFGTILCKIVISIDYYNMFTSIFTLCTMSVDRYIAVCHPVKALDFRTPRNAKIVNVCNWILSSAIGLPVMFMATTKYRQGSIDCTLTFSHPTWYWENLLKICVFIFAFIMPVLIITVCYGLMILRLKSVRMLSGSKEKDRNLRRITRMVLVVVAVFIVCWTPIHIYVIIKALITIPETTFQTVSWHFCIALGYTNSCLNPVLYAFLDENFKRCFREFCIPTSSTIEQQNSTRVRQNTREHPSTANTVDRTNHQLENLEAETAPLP
T1 sequence (P41144 whole entry): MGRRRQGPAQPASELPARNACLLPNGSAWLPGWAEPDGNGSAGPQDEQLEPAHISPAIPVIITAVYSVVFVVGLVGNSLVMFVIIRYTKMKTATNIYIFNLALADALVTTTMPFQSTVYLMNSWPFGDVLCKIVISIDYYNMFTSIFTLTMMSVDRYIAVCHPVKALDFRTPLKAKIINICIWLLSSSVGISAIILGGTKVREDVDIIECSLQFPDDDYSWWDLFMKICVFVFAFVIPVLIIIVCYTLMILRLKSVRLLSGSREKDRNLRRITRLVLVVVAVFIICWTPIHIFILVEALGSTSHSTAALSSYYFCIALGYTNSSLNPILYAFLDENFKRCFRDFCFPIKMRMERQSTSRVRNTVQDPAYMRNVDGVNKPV

Turning to `CO[C@@]12CC[C@H](N[C@@H](CCSC)C(=O)O)[C@@H]3Oc4c(O)ccc5c4[C@@]31CCN(C)[C@@H]2C5` [Compound 23], the Ki on KOR (setting [1]) was determined as 109 nM; on KOR (setting [2]), 109 nM; on MOR (setting [3]), 0.93 nM; on MOR (setting [4]), 0.93 nM; on DOR (setting [5]) it was 4.03 nM; at DOR (setting [6]) it was 4.03 nM.

For the compound `CC[C@H](C)[C@H](N[C@@H]1CC[C@@]2(OC)[C@H]3Cc4ccc(O)c5c4[C@@]2(CCN3C)[C@H]1O5)C(=O)O` [Compound 43], the Ki is 163 nM on KOR (setting [1]); 163 nM at KOR (setting [2]); 1.46 nM at MOR (setting [3]); 1.46 nM on MOR (setting [4]); 1.3 nM on DOR (setting [5]); 1.3 nM on DOR (setting [6]).

Regarding `CC(C)(C)OC(=O)[C@H](Cc1ccccc1)N[C@@H]1CC[C@@]2(O)[C@H]3Cc4ccc(O)c5c4[C@@]2(CCN3CC2CC2)[C@H]1O5` [60-tBu ester], the Ki at KOR (setting [7]) is 17.6 nM; on MOR (setting [8]), 5.49 nM; at DOR (setting [9]), 1.12 nM.

With `COC12CCC(NC(C(=O)O)C(C)C)C3Oc4c(O)ccc5c4C31CCN(C)C2C5` (single isomer, unassigned) [Compound 29], the inhibitory constant (Ki) came out at 305 nM at KOR (setting [1]); 305 nM on KOR (setting [2]); 3.04 nM at MOR (setting [3]); 3.04 nM on MOR (setting [4]); 3.52 nM at DOR (setting [5]); 3.52 nM at DOR (setting [6]).

On to `CC[C@H](C)[C@H](N[C@H]1CC[C@@]2(OC)[C@H]3Cc4ccc(O)c5c4[C@@]2(CCN3C)[C@H]1O5)C(=O)O` [Compound 42], for which the inhibitory constant (Ki) on KOR (setting [1]) came to 131 nM; on KOR (setting [2]) it was 131 nM; on MOR (setting [3]) it was 0.84 nM; at MOR (setting [4]), 0.84 nM; at DOR (setting [5]), 3.2 nM; at DOR (setting [6]) it was 3.2 nM.

For `CO[C@@]12CC[C@@H](N[C@@H](CCC(=O)O)C(=O)O)[C@@H]3Oc4c(O)ccc5c4[C@@]31CCN(CC1CC1)[C@@H]2C5` [Compound 75], the Ki came to 12.9 nM at KOR (setting [10]); 12.9 nM at KOR (setting [7]); 3.35 nM at MOR (setting [11]); 3.35 nM on MOR (setting [8]); 2.77 nM on DOR (setting [12]); 2.77 nM at DOR (setting [9]).

For `CO[C@@]12CC[C@H](N[C@@H](C(=O)OC(C)(C)C)C(C)C)[C@@H]3Oc4c(O)ccc5c4[C@@]31CCN(CC1CC1)[C@@H]2C5` [70-tBu ester], the values for the inhibitory constant (Ki) at KOR (setting [7]), at MOR (setting [8]) and at DOR (setting [9]) were 18.8 nM, 0.63 nM and 0.51 nM, respectively.

Take `CO[C@@]12CC[C@H](NCCCC(=O)OC(C)(C)C)[C@@H]3Oc4c(O)ccc5c4[C@@]31CCN(CC1CC1)[C@@H]2C5` [65-tBu ester]: the inhibitory constant (Ki) on KOR (setting [7]) is 0.6 nM; on MOR (setting [8]), 0.46 nM; at DOR (setting [9]), 2.69 nM.

With `CO[C@@]12CC[C@H](N[C@@H](CO)C(=O)OC(C)(C)C)[C@@H]3Oc4c(O)ccc5c4[C@@]31CCN(C)[C@@H]2C5` [36-t-Bu ester], the Ki is 6.2 nM on KOR (setting [1]), 0.2 nM on MOR (setting [3]) and 0.17 nM on DOR (setting [5]).

As for `CO[C@@]12CC[C@@H](N[C@@H](CCC(N)=O)C(=O)OC(C)(C)C)[C@@H]3Oc4c(O)ccc5c4[C@@]31CCN(C)[C@@H]2C5` [18-t-Bu ester], the Ki was 163 nM at KOR (setting [1]), 1.65 nM on MOR (setting [3]) and 1.35 nM on DOR (setting [5]).

Consider `CO[C@@]12CC[C@@H](NCCCC(=O)OC(C)(C)C)[C@@H]3Oc4c(O)ccc5c4[C@@]31CCN(CC1CC1)[C@@H]2C5` [66-tBu ester], for which the figures for the Ki at KOR (setting [7]), on MOR (setting [8]) and at DOR (setting [9]) were 2.81 nM, 2.13 nM and 3.78 nM, respectively.

For `COC12CCC(NC(C(=O)O)C(C)C)C3Oc4c(O)ccc5c4C31CCN(CC1CC1)C2C5` (single isomer, unassigned) [Compound 71], the Ki on KOR (setting [10]) came out at 23 nM; at KOR (setting [7]), 23 nM; at MOR (setting [11]), 1.52 nM; on MOR (setting [8]) it was 1.52 nM; at DOR (setting [12]), 0.35 nM; at DOR (setting [9]), 0.35 nM.

Turning to `CO[C@@]12CC[C@@H](N[C@@H](CC(C)C)C(=O)OC(C)(C)C)[C@@H]3Oc4c(O)ccc5c4[C@@]31CCN(C)[C@@H]2C5` [41-t-Bu ester], the Ki on KOR (setting [1]) is 240 nM; at MOR (setting [3]), 0.57 nM; at DOR (setting [5]), 0.42 nM.

As for `CO[C@@]12CC[C@@H](N[C@@H](CC(C)C)C(=O)O)[C@@H]3Oc4c(O)ccc5c4[C@@]31CCN(CC1CC1)[C@@H]2C5` [Compound 77], the inhibitory constant (Ki) at KOR (setting [7]) was determined as 11 nM; at MOR (setting [8]) it was 1.96 nM; at DOR (setting [9]), 1.13 nM.

On to `CO[C@@]12CC[C@H](N[C@@H](C(=O)OC(C)(C)C)C(C)C)[C@@H]3Oc4c(O)ccc5c4[C@@]31CCN(C)[C@@H]2C5` [30-t-Bu ester], for which the inhibition constant (Ki) came out at 22.7 nM on KOR (setting [13]), 0.11 nM on MOR (setting [14]) and 0.093 nM on DOR (setting [15]).

Turning to `CO[C@@]12CC[C@H](N[C@@H](Cc3ccccc3)C(=O)OC(C)(C)C)[C@@H]3Oc4c(O)ccc5c4[C@@]31CCN(C)[C@@H]2C5` [3-t-Bu ester], the values for the Ki on KOR (setting [13]), on MOR (setting [14]) and at DOR (setting [15]) were 32.5 nM, 0.5 nM and 0.93 nM, respectively.

For `CO[C@@]12CC[C@H](N[C@@H](CCC(=O)OC(C)(C)C)C(=O)OC(C)(C)C)[C@@H]3Oc4c(O)ccc5c4[C@@]31CCN(C)[C@@H]2C5` [19-t-Bu ester], the Ki at KOR (setting [13]) was determined as 18.3 nM; on MOR (setting [14]) it was 0.27 nM; on DOR (setting [15]), 0.32 nM.

For the compound `CO[C@@]12CC[C@@H](NCC(=O)NCC(=O)O)[C@@H]3Oc4c(O)ccc5c4[C@@]31CCN(C)[C@@H]2C5` [Compound 25], the Ki at KOR (setting [2]) worked out at 203 nM; at MOR (setting [4]), 4.62 nM; on DOR (setting [6]) it was 7.52 nM.

For `CO[C@@]12CC[C@@H](N[C@H](C(=O)OC(C)(C)C)C(C)C)[C@@H]3Oc4c(O)ccc5c4[C@@]31CCN(CC1CC1)[C@@H]2C5` [69-tBu ester], the figures for the Ki on KOR (setting [7]), on MOR (setting [8]) and at DOR (setting [9]) were 4.32 nM, 1.23 nM and 0.7 nM, respectively.

With `COC12CCC(NC(C(=O)O)C(C)C)C3Oc4c(O)ccc5c4C31CCN(CC1CC1)C2C5` (single isomer, unassigned) [Compound 69], the Ki on KOR (setting [10]) amounted to 3 nM; at KOR (setting [7]) it was 3 nM; at MOR (setting [11]) it was 0.66 nM; at MOR (setting [8]), 0.66 nM; at DOR (setting [12]), 1.35 nM; at DOR (setting [9]) it was 1.35 nM.

`CCO[C@@]12CC[C@H](NCC(=O)O)[C@@H]3Oc4c(O)ccc5c4[C@@]31CCN(C)[C@@H]2C5` [Compound 5]: the inhibition constant Ki at KOR (setting [1]) worked out at 45.2 nM; at KOR (setting [2]), 45.2 nM; at MOR (setting [3]) it was 0.57 nM; on MOR (setting [4]), 0.57 nM; on DOR (setting [5]) it was 10.3 nM; on DOR (setting [6]), 10.3 nM.

Consider `COC12CCC(NC(C(=O)O)C(C)C)C3Oc4c(O)ccc5c4C31CCN(C)C2C5` (single isomer, unassigned) [Compound 31], for which the Ki on KOR (setting [1]) worked out at 159 nM; on KOR (setting [2]) it was 159 nM; on MOR (setting [3]), 1.02 nM; on MOR (setting [4]) it was 1.02 nM; on DOR (setting [5]), 1.68 nM; on DOR (setting [6]) it was 1.68 nM.

Turning to `CO[C@@]12CC[C@@H](NCC(=O)OCc3ccccc3)[C@@H]3Oc4c(O)ccc5c4[C@@]31CCN(C)[C@@H]2C5` [HS731-benzyl ester], the inhibitory constant (Ki) is 2.86 nM at KOR (setting [13]), 0.29 nM at MOR (setting [3]) and 0.74 nM on DOR (setting [15]).

Regarding `COC12CCC(NC(C(=O)O)C(C)C)C3Oc4c(O)ccc5c4C31CCN(CC1CC1)C2C5` (single isomer, unassigned) [Compound 70], the Ki was found to be 3.54 nM on KOR (setting [10]); 3.54 nM at KOR (setting [7]); 0.62 nM at MOR (setting [11]); 0.62 nM at MOR (setting [8]); 0.71 nM at DOR (setting [12]); 0.71 nM at DOR (setting [9]).

The term Ki denotes a measure of affinity in units of concentration, obtained from inhibition or displacement.
